Patent US10422803B2, “Light-activated cation channel and uses thereof” (The Board of Trustees of the Leland Stanford Junior …, priority 2005, dated 2019)

Test system: hippocampal neurons
Experiment: Light-driven synaptic transmission from ChR2-expressing presynaptic neurons
Assay type: cell-based, rat
Description: Spiking was measured while injecting current to keep the voltage of the cell at approximately −65 mV (holding current ranging from 0 pA to 200 pA). For the synaptic transmission experiments, we patched nonfluorescent neurons near ChR2-expressing neurons, immersed in Tyrode solution containing either 20 μM gabazine to isolate just the excitatory postsynaptic response, or in 5 μM NBQX to isolate just the inhibitory postsynaptic response. To confirm whether the evoked potentials were indeed synaptically driven, after synaptic stimulation we blocked all postsynaptic receptors with solution containing both 20 μM gabazine and 5 μM NBQX, and rephotostimulated.

NS(=O)(=O)c1cccc2c1c([N+](=O)[O-])cc1nc(O)c(O)nc12 [NBQX]
effect on light-driven excitatory synaptic responses (glutamatergic blocker, FIG. 4(c)): abolishes these synaptic responses

COc1ccc(-c2ccc(=N)n(CCCC(=O)O)n2)cc1 [gabazine]
effect on light-driven inhibitory synaptic responses (GABAergic transmission blocker, FIG. 4(d)): abolishes these synaptic responses
